# Results: patent publication US20240374591A1, “CEREBLON BINDING COMPOUNDS, COMPOSITIONS THEREOF, AND METHODS OF TREATMENT THEREWITH” (CELGENE CORPORATION, priority 2021, published 2024)
# Structures can show the parent of a compound that is named as a salt.
# Target: T1, AR in VCaP cells (Homo sapiens, UniProt P10275)
# T1 construct: endogenous in cells; host or cells: VCaP cells
# T1 sequence (P10275 1-920): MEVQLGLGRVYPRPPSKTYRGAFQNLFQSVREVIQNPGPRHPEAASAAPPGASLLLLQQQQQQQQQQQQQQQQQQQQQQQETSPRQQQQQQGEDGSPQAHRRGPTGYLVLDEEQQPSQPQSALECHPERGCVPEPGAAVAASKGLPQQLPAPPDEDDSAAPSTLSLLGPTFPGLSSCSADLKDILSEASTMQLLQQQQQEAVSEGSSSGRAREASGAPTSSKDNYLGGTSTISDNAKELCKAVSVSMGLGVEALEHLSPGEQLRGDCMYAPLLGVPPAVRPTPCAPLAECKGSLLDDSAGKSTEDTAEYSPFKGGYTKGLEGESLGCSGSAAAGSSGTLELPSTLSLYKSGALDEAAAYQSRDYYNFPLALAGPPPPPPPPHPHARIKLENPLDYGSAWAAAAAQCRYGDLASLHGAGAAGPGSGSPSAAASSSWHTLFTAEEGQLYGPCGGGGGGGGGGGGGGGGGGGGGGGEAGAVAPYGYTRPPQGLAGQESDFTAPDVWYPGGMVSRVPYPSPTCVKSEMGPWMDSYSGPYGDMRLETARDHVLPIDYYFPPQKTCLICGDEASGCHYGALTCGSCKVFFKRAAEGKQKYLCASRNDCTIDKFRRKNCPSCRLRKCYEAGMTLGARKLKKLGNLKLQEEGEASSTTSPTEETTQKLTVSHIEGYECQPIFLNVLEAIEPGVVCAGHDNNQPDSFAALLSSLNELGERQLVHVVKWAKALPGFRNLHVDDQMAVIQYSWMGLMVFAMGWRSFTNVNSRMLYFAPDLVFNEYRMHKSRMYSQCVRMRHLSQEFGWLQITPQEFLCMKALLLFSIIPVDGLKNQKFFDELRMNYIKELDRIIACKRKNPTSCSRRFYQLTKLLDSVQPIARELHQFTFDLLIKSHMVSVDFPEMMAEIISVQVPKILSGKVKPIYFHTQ
# Assay: VCAP AR Degradation Assay (AR ELISA, 24 h)
# Assay type: cell-based
# Settings: for DC50: concentration giving 50% AR degradation vs DMSO control; for remaining activity at up to 5 µM: lowest measured AR level normalized to DMSO control, top concentration 5 μM, read-out: Y
# Method: VCAP AR Degradation Assay. Test compounds were pre-dispensed into a Corning CellBind 96-well clear bottom plate (Cat #3300) using an acoustic dispenser to make a 10-point concentration series at 1:3 dilution for each compound. The final top concentration of each compound was 5 μM. DMSO at a final concentration of 0.1% was used as a control. VCaP cells cultured in DMEM with 8% fetal bovine serum (FBS) were seeded at 50K cells per well in a 200 μL volume into the compound plate and incubated at 37° C. in a CO2 incubator for 24 h. The medium was carefully removed from the cells and the plate was placed on ice. One hundred μL of ice-cold 1× cell lysis buffer from Cell Signaling Technologies (Cat #9803) was added to each well of the cells and the plate was incubated at 4° C. on a shaker for 1 h. Fifteen μL of cell lysate was used for AR ELISA detection using a PathScan Total Sandwich AR ELISA kit (Cell Signaling Technology, Cat #12580). AR levels in compound-treated wells were normalized to that of DMSO control and expressed as percent of control (PoC) (y). A Four Parameter Logistic Model (Sigmoidal Dose-Response Model) was used to determine the compound's DC50, and EC50, using the following equation: […]
# The lowest measured AR level normalized to DMSO control in response to compound treatment, termed Y value, was used to characterize the compound-mediated AR degradation efficiency.
SMILES,DC50 [nM],remaining activity at up to 5 µM [%]
"C[C@@H]1C[C@H](OCCO[C@H]2CC[C@H](N3C(=S)N(c4ccc(C#N)c(C(F)(F)F)c4)C(=O)C3(C)C)CC2)C[C@H](C)N1CC(=O)Nc1ccc(C2CCC(=O)NC2=O)nc1 (stereo partly drawn) [Cmpd 29, 2-((2R,4r,6S)-4-(2-(((trans)-4-(3-(4-Cyano-3-(trifluoromethyl)phenyl)-5,5-dimethyl-4-oxo-2-thioxoimidazolidin-1-yl)cyclohexyl)oxy)ethoxy)-2,6-dimethylpiperidin-1-yl)-N-(6-(2,6-dioxopiperidin-3-yl)pyridin-3-yl)acetamide]",≤ 5,20 to 30
"CC1(C)C(=O)N(c2ccc(C#N)c(C(F)(F)F)c2)C(=S)N1[C@H]1CC[C@H](CCCN2CCN(CC(=O)Nc3ccc(C4CCC(=O)NC4=O)nc3)[C@@H](C(F)(F)F)C2)CC1 (stereo partly drawn) [Cmpd 22, 2-((R)-4-(3-((trans)-4-(3-(4-Cyano-3-(trifluoromethyl)phenyl)-5,5-dimethyl-4-oxo-2-thioxoimidazolidin-1-yl)cyclohexyl)propyl)-2-(trifluoromethyl)piperazin-1-yl)-N-(6-(2,6-dioxopiperidin-3-yl)pyridin-3-yl)acetamide]",10 to 100,20 to 30
"C[C@@H]1CN(CCCO[C@H]2CC[C@H](N3C(=S)N(c4cnc(C#N)c(C(F)(F)F)c4)C(=O)C3(C)C)CC2)C[C@H](C)N1CC(=O)Nc1ccc(C2CCC(=O)NC2=O)nc1 (stereo partly drawn) [Cmpd 4, 2-((2R,6S)-4-(3-((trans-4-(3-(6-Cyano-5-(trifluoromethyl)pyridin-3-yl)-5,5-dimethyl-4-oxo-2-thioxoimidazolidin-1-yl)cyclohexyl)oxy)propyl)-2,6-dimethylpiperazin-1-yl)-N-(6-(2,6-dioxopiperidin-3-yl)pyridin-3-yl)acetamide hydrochloride]",≤ 5,20 to 30
"C[C@@H]1CN(CCO[C@H]2CC[C@H](N3C(=S)N(c4cnc(C#N)c(Cl)c4)C(=O)C3(C)C)CC2)C[C@H](C)N1CC(=O)Nc1ccc(C2CCC(=O)NC2=O)nc1 (stereo partly drawn) [Cmpd 6, 2-((2R,6S)-4-(2-((trans-4-(3-(5-Chloro-6-cyanopyridin-3-yl)-5,5-dimethyl-4-oxo-2-thioxoimidazolidin-1-yl)cyclohexyl)oxy)ethyl)-2,6-dimethylpiperazin-1-yl)-N-(6-(2,6-dioxopiperidin-3-yl)pyridin-3-yl)acetamide hydrochloride]",≤ 5,20 to 30
"C[C@@H]1C[C@H](OCC[C@H]2CC[C@H](N3C(=S)N(c4ccc(C#N)c(C(F)(F)F)c4)C(=O)C3(C)C)CC2)C[C@H](C)N1CC(=O)Nc1ccc(C2CCC(=O)NC2=O)nc1 (stereo partly drawn) [Cmpd 27, 2-((2R,4r,6S)-4-(2-((trans)-4-(3-(4-Cyano-3-(trifluoromethyl)phenyl)-5,5-dimethyl-4-oxo-2-thioxoimidazolidin-1-yl)cyclohexyl)ethoxy)-2,6-dimethylpiperidin-1-yl)-N-(6-(2,6-dioxopiperidin-3-yl)pyridin-3-yl)acetamide]",5 to 10,20 to 30
"C[C@@H]1C[C@H](OCCC[C@H]2CC[C@H](N3C(=S)N(c4ccc(C#N)c(C(F)(F)F)c4)C(=O)C3(C)C)CC2)C[C@H](C)N1CC(=O)Nc1ccc(C2CCC(=O)NC2=O)nc1 (stereo partly drawn) [Cmpd 20, 2-((2R,4r,6S)-4-(3-((trans)-4-(3-(4-Cyano-3-(trifluoromethyl)phenyl)-5,5-dimethyl-4-oxo-2-thioxoimidazolidin-1-yl)cyclohexyl)propoxy)-2,6-dimethylpiperidin-1-yl)-N-(6-(2,6-dioxopiperidin-3-yl)pyridin-3-yl)acetamide]",5 to 10,20 to 30
"C[C@@H]1CN(CCC[C@H]2CC[C@H](N3C(=S)N(c4ccc(C#N)c(C(F)(F)F)c4)C(=O)C3(C)C)CC2)C[C@H](C)N1CC(=O)Nc1ccc(C2CCC(=O)NC2=O)nc1 (stereo partly drawn) [Cmpd 3, 2-((2R,6S)-4-(3-(trans-4-(3-(4-Cyano-3-(trifluoromethyl)phenyl)-5,5-dimethyl-4-oxo-2-thioxoimidazolidin-1-yl)cyclohexyl)propyl)-2,6-dimethylpiperazin-1-yl)-N-(6-(2,6-dioxopiperidin-3-yl)pyridin-3-yl)acetamide]",5 to 10,30 to 70
"C[C@@H]1C[C@@H](CCO[C@H]2CC[C@H](N3C(=S)N(c4cnc(C#N)c(C(F)(F)F)c4)C(=O)C3(C)C)CC2)C[C@H](C)N1CC(=O)Nc1ccc(C2CCC(=O)NC2=O)nc1 (stereo partly drawn) [Cmpd 19, 2-((2R,4s,6S)-4-(2-(((trans)-4-(3-(6-Cyano-5-(trifluoromethyl)pyridin-3-yl)-5,5-dimethyl-4-oxo-2-thioxoimidazolidin-1-yl)cyclohexyl)oxy)ethyl)-2,6-dimethylpiperidin-1-yl)-N-(6-(2,6-dioxopiperidin-3-yl)pyridin-3-yl)acetamide]",≤ 5,20 to 30
"C[C@@H]1C[C@H](CCO[C@H]2CC[C@H](N3C(=S)N(c4cnc(C#N)c(C(F)(F)F)c4)C(=O)C3(C)C)CC2)C[C@H](C)N1CC(=O)Nc1ccc(C2CCC(=O)NC2=O)nc1 (stereo partly drawn) [Cmpd 18, 2-((2R,4r,6S)-4-(2-(((trans)-4-(3-(6-Cyano-5-(trifluoromethyl)pyridin-3-yl)-5,5-dimethyl-4-oxo-2-thioxoimidazolidin-1-yl)cyclohexyl)oxy)ethyl)-2,6-dimethylpiperidin-1-yl)-N-(6-(2,6-dioxopiperidin-3-yl)pyridin-3-yl)acetamide]",≤ 5,0 to 20
"CC1(C)C(=O)N(c2cnc(C#N)c(C(F)(F)F)c2)C(=S)N1[C@H]1CC[C@H](CCCN2CCN(CC(=O)Nc3ccc(C4CCC(=O)NC4=O)nc3)[C@@H](C(F)(F)F)C2)CC1 (stereo partly drawn) [Cmpd 21, 2-((R)-4-(3-((trans)-4-(3-(6-Cyano-5-(trifluoromethyl)pyridin-3-yl)-5,5-dimethyl-4-oxo-2-thioxoimidazolidin-1-yl)cyclohexyl)propyl)-2-(trifluoromethyl)piperazin-1-yl)-N-(6-(2,6-dioxopiperidin-3-yl)pyridin-3-yl)acetamide]",≤ 5,0 to 20
"C[C@@H]1CN(CCCC[C@H]2CC[C@H](N3C(=S)N(c4ccc(C#N)c(C(F)(F)F)c4)C(=O)C3(C)C)CC2)C[C@H](C)N1CC(=O)Nc1ccc(C2CCC(=O)NC2=O)nc1 (stereo partly drawn) [Cmpd 16, 2-((2R,6S)-4-(4-((trans)-4-(3-(4-Cyano-3-(trifluoromethyl)phenyl)-5,5-dimethyl-4-oxo-2-thioxoimidazolidin-1-yl)cyclohexyl)butyl)-2,6-dimethylpiperazin-1-yl)-N-(6-(2,6-dioxopiperidin-3-yl)pyridin-3-yl)acetamide]",≤ 5,20 to 30
"C[C@@H]1C[C@H](OCCC[C@H]2CC[C@H](N3C(=S)N(c4cnc(C#N)c(C(F)(F)F)c4)C(=O)C3(C)C)CC2)C[C@H](C)N1CC(=O)Nc1ccc(C2CCC(=O)NC2=O)nc1 (stereo partly drawn) [Cmpd 26, 2-((2R,4r,6S)-4-(3-((trans)-4-(3-(6-Cyano-5-(trifluoromethyl)pyridin-3-yl)-5,5-dimethyl-4-oxo-2-thioxoimidazolidin-1-yl)cyclohexyl)propoxy)-2,6-dimethylpiperidin-1-yl)-N-(6-(2,6-dioxopiperidin-3-yl)pyridin-3-yl)acetamide]",≤ 5,0 to 20
"C[C@@H]1CN(CCCO[C@H]2CC[C@H](N3C(=S)N(c4ccc(C#N)c(Cl)c4)C(=O)C3(C)C)CC2)C[C@H](C)N1CC(=O)Nc1ccc(C2CCC(=O)NC2=O)nc1 (stereo partly drawn) [Cmpd 7, 2-((2R,6S)-4-(3-((trans-4-(3-(3-Chloro-4-cyanophenyl)-5,5-dimethyl-4-oxo-2-thioxoimidazolidin-1-yl)cyclohexyl)oxy)propyl)-2,6-dimethylpiperazin-1-yl)-N-(6-(2,6-dioxopiperidin-3-yl)pyridin-3-yl)acetamide hydrochloride]",≤ 5,0 to 20
